# Experimental data taken from patent US20100267561A1, “HERBICIDAL PYRIDAZINONE DERIVATIVES” (priority 2007, published 2010).
# Legend:
# Assay in all cases: Test B pre-/postemergence plant response
# Format in all cases: in vivo
# [1] = tested on: bermudagrass (Cynodon dactylon); details: Preemergence
# Procedure, shortened: (§1)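 Visual scoring from 0 (no effect) to 100 (complete control) against untreated controls was done 13 to 15 days after greenhouse treatment. Chemicals were formulated in a surfactant-containing non-phytotoxic solvent and applied to soil preemergence or to 1- to 4-leaf (2-18 cm) plants postemergence.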
# [2] = tested on: blackgrass (Alopecurus myosuroides); details: Preemergence
# Procedure, shortened: as §1
# [3] = tested on: catchweed bedstraw (Galium aparine); details: Preemergence
# Procedure, shortened: as §1
# [4] = tested on: common (oilseed) sunflower (Helianthus annuus); details: Preemergence
# Procedure, shortened: as §1
# corn (Zea mays) = details: Preemergence
# Procedure, shortened: as §1
# [5] = tested on: downy bromegrass (Bromus tectorum); details: Preemergence
# Procedure, shortened: as §1
# [6] = tested on: giant foxtail (Setaria faberii); details: Preemergence
# Procedure, shortened: as §1
# [7] = tested on: green foxtail (Setaria viridis); details: Preemergence
# Procedure, shortened: as §1
# [8] = tested on: lambsquarters (Chenopodium album); details: Preemergence
# Procedure, shortened: as §1
# [9] = tested on: large crabgrass (Digitaria sanguinalis); details: Preemergence
# Procedure, shortened: as §1
# [10] = tested on: morningglory (Ipomoea coccinea); details: Preemergence
# Procedure, shortened: as §1
# [11] = tested on: velvetleaf (Abutilon theophrasti); details: Preemergence; for Velvetleaf plant response rating: scale 0 to 100
# Procedure, shortened: as §1
# [12] = tested on: wheat (Triticum aestivum); details: Preemergence; for Wheat plant response rating: scale 0 to 100
# Procedure, shortened: as §1
# wild oat (Avena fatua) = details: Preemergence
# Procedure, shortened: as §1
# [13] = 16 g ai/ha, scale 0 to 100 (0 no effect, 100 complete control)
# [14] = 31 g ai/ha, 0 to 100 scale, 0 no effect, 100 complete control
# [15] = 31 g ai/ha, scale 0 to 100 (0 no effect, 100 complete control)
# [16] = 62 g ai/ha, 0 to 100 scale, 0 no effect, 100 complete control
compound,measurement,setting,value
Cc1cc(-c2ccc(Cl)cc2)nn1-c1c(OS(=O)(=O)c2ccccc2[N+](=O)[O-])cnn(C)c1=O [Compound 51],Bermudagrass plant response rating,"[1]; 8 g ai/ha, scale 0 to 100 (0 no effect, 100 complete control)",60
same,"Plant response rating, Bermudagrass",[1]; [13],100
same,"Plant response rating, Bermudagrass",[1]; [14],100
same,"Plant response rating, Bermudagrass","[1]; 62 g ai/ha, scale 0 to 100",100
same,"Plant response rating, Blackgrass",[2]; [13],98
same,"Plant response rating, Blackgrass",[2]; [14],98
same,"Plant response rating, Blackgrass","[2]; 62 g ai/ha, scale 0 to 100",100
same,Blackgrass plant response rating,"[2]; 8 g ai/ha, scale 0 to 100",50
same,"Plant response rating, Galium",[3]; [14],0
same,"Plant response rating, Galium","[3]; 62 g ai/ha, scale 0 to 100",0
same,Galium plant response rating,"[3]; 8 g ai/ha, scale 0 to 100",0
same,Galium plant response rating,"[3]; 16 g ai/ha, scale 0 to 100",0
same,"Plant response rating, Sunflower",[4]; [15],0
same,"Plant response rating, Sunflower","[4]; 62 g ai/ha, scale 0 to 100",0
same,Sunflower plant response rating,"[4]; 8 g ai/ha, scale 0 to 100",0
same,Sunflower plant response rating,"[4]; 16 g ai/ha, scale 0 to 100",0
same,"Plant response rating, Corn",corn (Zea mays); [14],60
same,"Plant response rating, Corn","corn (Zea mays); 62 g ai/ha, scale 0 to 100",80
same,"Plant response rating, Bromegrass, Downy",[5]; [13],0
same,"Plant response rating, Bromegrass, Downy",[5]; [14],45
same,"Plant response rating, Bromegrass, Downy","[5]; 62 g ai/ha, scale 0 to 100",85
same,"Bromegrass, Downy plant response rating","[5]; 8 g ai/ha, scale 0 to 100",0
same,"Plant response rating, Foxtail, Giant",[6]; [14],100
same,"Plant response rating, Foxtail, Giant","[6]; 62 g ai/ha, scale 0 to 100",100
same,"Foxtail, Giant plant response rating","[6]; 8 g ai/ha, scale 0 to 100",80
same,"Foxtail, Giant plant response rating","[6]; 16 g ai/ha, scale 0 to 100",100
same,"Plant response rating, Foxtail, Green",[7]; [14],98
same,"Plant response rating, Foxtail, Green","[7]; 62 g ai/ha, scale 0 to 100",100
same,"Foxtail, Green plant response rating","[7]; 8 g ai/ha, scale 0 to 100",50
same,"Foxtail, Green plant response rating","[7]; 16 g ai/ha, scale 0 to 100",90
same,"Plant response rating, Lambsquarters",[8]; [14],0
same,"Plant response rating, Lambsquarters","[8]; 62 g ai/ha, scale 0 to 100",0
same,"Plant response rating, Crabgrass, Large",[9]; [14],75
same,"Plant response rating, Crabgrass, Large","[9]; 62 g ai/ha, scale 0 to 100",90
same,"Crabgrass, Large plant response rating","[9]; 8 g ai/ha, scale 0 to 100",0
same,"Crabgrass, Large plant response rating","[9]; 16 g ai/ha, scale 0 to 100",20
same,"Plant response rating, Morningglory",[10]; [15],0
same,"Plant response rating, Morningglory","[10]; 62 g ai/ha, scale 0 to 100",0
same,Morningglory plant response rating,"[10]; 8 g ai/ha, scale 0 to 100",0
same,Morningglory plant response rating,"[10]; 16 g ai/ha, scale 0 to 100",0
same,"Plant response rating, Velvetleaf",[11]; [15],0
same,"Plant response rating, Velvetleaf",[11]; [16],0
same,Velvetleaf plant response rating,[11]; 8 g ai/ha,0
same,Velvetleaf plant response rating,[11]; 16 g ai/ha,0
same,"Plant response rating, Wheat",[12]; [15],10
same,"Plant response rating, Wheat",[12]; [16],60
same,Wheat plant response rating,[12]; 8 g ai/ha,0
same,Wheat plant response rating,[12]; 16 g ai/ha,0
same,"Plant response rating, Oat, Wild",wild oat (Avena fatua); [15],80
same,"Plant response rating, Oat, Wild","wild oat (Avena fatua); 62 g ai/ha, scale 0 to 100",90
same,"Oat, Wild plant response rating","wild oat (Avena fatua); 8 g ai/ha, scale 0 to 100",0
same,"Oat, Wild plant response rating","wild oat (Avena fatua); 16 g ai/ha, scale 0 to 100",10
